According to ChEMBL document CHEMBL3407402, “Nintedanib: from discovery to the clinic” (J Med Chem, 2015):

Tests used:
[1] = Inhibition of VEGF-stimulated HSMEC cell proliferation; format: functional; settings: Homo sapiens
[2] = AUC in Rhesus monkey at 5 mg/kg, iv; format: ADME, organism-based, Macaca mulatta; design: dose 5 mg/kg, route intravenous; settings: plasma
[3] = Cmax in Cynomolgus monkey at 5 mg/kg, iv; format: ADME, organism-based, Macaca fascicularis; design: dose 5 mg/kg, route intravenous; settings: in vivo
[4] = Volume of distribution at steady state in Cynomolgus monkey at 5 mg/kg, iv; format: ADME, organism-based, Macaca fascicularis; design: dose 5 mg/kg, route intravenous; settings: in vivo, read-out: Vdss
[5] = Mean residence time in Cynomolgus monkey at 5 mg/kg, iv; format: ADME, organism-based, Macaca fascicularis; design: dose 5 mg/kg, route intravenous; settings: in vivo
[6] = Clearance in Rhesus monkey at 5 mg/kg, iv; format: ADME, organism-based, Macaca mulatta; design: dose 5 mg/kg, route intravenous; settings: in vivo
[7] = Volume of distribution at steady state in Rhesus monkey at 5 mg/kg, iv; format: ADME, organism-based, Macaca mulatta; design: dose 5 mg/kg, route intravenous; settings: in vivo, read-out: Vdss
[8] = in vivo; settings: rhesus monkey, iv, 5 mg/kg
Description: Half life in Rhesus monkey at 5 mg/kg, iv

[9] = Cmax in Rhesus monkey at 5 mg/kg, iv; format: ADME, organism-based, Macaca mulatta; design: dose 5 mg/kg, route intravenous; settings: in vivo
[10] = AUC in CD1 mouse at 50 mg/kg, po; format: ADME, organism-based; design: dose 50 mg/kg, route oral; settings: plasma
[11] = Cmax in Wistar rat at 50 mg/kg, po; format: ADME, organism-based; design: dose 50 mg/kg, route oral; settings: in vivo
[12] = Cmax in Wistar rat at 2 mg/kg, iv; format: ADME, organism-based; design: dose 2 mg/kg, route intravenous; settings: in vivo
[13] = Cmax in Rhesus monkey at 40 mg/kg, po; format: ADME, organism-based, Macaca mulatta; design: dose 40 mg/kg, route oral; settings: in vivo
[14] = AUC in Rhesus monkey at 40 mg/kg, po; format: ADME, organism-based, Macaca mulatta; design: dose 40 mg/kg, route oral; settings: plasma
[15] = Oral bioavailability in Cynomolgus monkey at 40 mg/kg; format: ADME, organism-based, Macaca fascicularis; settings: in vivo
[16] = tested on: Rattus norvegicus; test: Half life in Wistar rat at 2 mg/kg, iv; format: ADME, organism-based; design: dose 2 mg/kg, route intravenous; settings: in vivo
[17] = Antitumor activity against human H460 cells in xenograft model assessed as tumor growth inhibition ratio; format: functional, NCI-H460
[18] = Drug excretion in healthy male after 24 to 48 hrs; format: ADME, organism-based; settings: human, in vivo, read-out: Drug excretion
[19] = Drug excretion in healthy male via biliary system into feces over 120 hrs; format: ADME, tissue-based; settings: human, faeces, read-out: Drug excretion
[20] = Drug excretion in healthy male urine/feces after 96 hrs; format: ADME, tissue-based; settings: human, urine and faeces, read-out: Drug excretion
[21] = Mean residence time in Rhesus monkey at 5 mg/kg, iv; format: ADME, organism-based, Macaca mulatta; design: dose 5 mg/kg, route intravenous; settings: in vivo
[22] = tested on: Rattus norvegicus; test: Mean residence time in Wistar rat at 2 mg/kg, iv; format: ADME, organism-based; design: dose 2 mg/kg, route intravenous; settings: in vivo
[23] = Drug excretion in healthy male urine after 72 hrs; format: ADME, tissue-based; settings: human, read-out: Drug excretion
[24] = AUC in Wistar rat at 2 mg/kg, iv; format: ADME, organism-based; design: dose 2 mg/kg, route intravenous; settings: plasma
[25] = Half life in Cynomolgus monkey at 5 mg/kg, iv; format: ADME, organism-based, Macaca fascicularis; design: dose 5 mg/kg, route intravenous; settings: in vivo
[26] = Half life in CD1 mouse at 50 mg/kg, po; format: ADME, organism-based; design: dose 50 mg/kg, route oral; settings: in vivo
[27] = Clearance in Cynomolgus monkey at 5 mg/kg, iv; format: ADME, organism-based, Macaca fascicularis; design: dose 5 mg/kg, route intravenous; settings: in vivo
[28] = Cmax in cynomolgus monkey at 40 mg/kg, po; format: ADME, organism-based, Macaca fascicularis; design: dose 40 mg/kg, route oral; settings: in vivo
[29] = AUC in Cynomolgus monkey at 40 mg/kg, po; format: ADME, organism-based, Macaca fascicularis; design: dose 40 mg/kg, route oral; settings: plasma
[30] = AUC in Wistar rat at 50 mg/kg, po; format: ADME, organism-based; design: dose 50 mg/kg, route oral; settings: plasma
[31] = Cmax in CD1 mouse at 50 mg/kg, po; format: ADME, organism-based; design: dose 50 mg/kg, route oral; settings: in vivo
[32] = Clearance in Wistar rat at 2 mg/kg, iv; format: ADME, organism-based; design: dose 2 mg/kg, route intravenous; settings: in vivo
[33] = Oral bioavailability in Wistar rat at 50 mg/kg; format: ADME, organism-based; settings: in vivo
[34] = clinical; settings: male, human, in vivo
Description: Terminal half life in healthy male

[35] = Mean residence time in CD1 mouse at 50 mg/kg, po; format: ADME, organism-based; design: dose 50 mg/kg, route oral; settings: in vivo
[36] = AUC in Cynomolgus monkey at 5 mg/kg, iv; format: ADME, organism-based, Macaca fascicularis; design: dose 5 mg/kg, route intravenous; settings: plasma
[37] = Oral bioavailability in Rhesus monkey at 40 mg/kg; format: ADME, organism-based, Macaca mulatta; settings: in vivo

CCS(=O)(=O)O.COC(=O)c1ccc2c(c1)NC(=O)/C2=C(\Nc1ccc(N(C)C(=O)CN2CCN(C)CC2)cc1)c1ccccc1 [NINTEDANIB ESYLATE]
EC50 [1]: < 10 nM | AUC [2]: 2830 ng·h/mL | Cmax [3]: 1300 ng/mL | Vd [4]: 8.64 L/kg | MRT [5]: 3.82 h | clearance [6]: 30.2 mL/min/kg | Vd [7]: 10.4 L/kg | half-life [8]: 7.09 h | Cmax [9]: 1090 ng/mL | AUC [10]: 2720 ng·h/mL | Cmax [11]: 105 ng/mL | Cmax [12]: 124 ng/mL | Cmax [13]: 311 ng/mL | AUC [14]: 4440 ng·h/mL | bioavailability [15]: 13.2% | t1/2 [16]: 3.95 h | TGI [17]: 75% | dose excreted [18]: 56.3% | dose excreted at 120 h [19]: 93.4% | dose excreted at 96 h [20]: 92.4% | MRT [21]: 5.7 h | MRT [22]: 3.25 h | dose excreted at 72 h [23]: 0.7% | AUC [24]: 181 ng·h/mL | half-life [25]: 5.95 h | half-life [26]: 5.15 h | clearance [27]: 37.5 mL/min/kg | Cmax [28]: 175 ng/mL | AUC [29]: 2390 ng·h/mL | AUC [30]: 375 ng·h/mL | Cmax [31]: 547 ng/mL | clearance [32]: 202 mL/min/kg | bioavailability [33]: 11.9% | half-life [34]: 13 h | MRT [35]: 5.19 h | AUC [36]: 2260 ng·h/mL | bioavailability [37]: 23.8%

CC(=O)O[C@@]12CO[C@@H]1C[C@H](O)[C@@]1(C)C(=O)[C@H](O)C3=C(C)[C@@H](OC(=O)[C@H](O)[C@@H](NC(=O)OC(C)(C)C)c4ccccc4)C[C@@](O)([C@@H](OC(=O)c4ccccc4)[C@H]21)C3(C)C.O.O.O [DOCETAXEL]
TGI [17]: 66%
